Measurements from US20230190870A1, “Method for Treating Lysosomal Storage Diseases with Histatin Peptides” (THE BOARD OF TRUSTEES OF THE UNIVERSITY OF ILLINOIS, priority 2020, published 2023).
Square brackets hold non-standard residues; d marks the D form. Peptide text beside a SMILES is read from it. pS = N[C@@H](COP(=O)(O)O)C(=O)O

What was measured:
[1] = target: T1, full-length recombinant TMEM97 (HEK293 cells) (Homo sapiens, UniProt Q5BJF2); assay: Surface plasmon resonance, immobilized full-length TMEM97; assay type: binding
T1 construct: Recombinant full-length TMEM97 (also called MAC30, from HEK293 cells); purchased OriGene (Rockville, Md.); host or cells: HEK293 cells
T1 sequence (Q5BJF2 whole entry): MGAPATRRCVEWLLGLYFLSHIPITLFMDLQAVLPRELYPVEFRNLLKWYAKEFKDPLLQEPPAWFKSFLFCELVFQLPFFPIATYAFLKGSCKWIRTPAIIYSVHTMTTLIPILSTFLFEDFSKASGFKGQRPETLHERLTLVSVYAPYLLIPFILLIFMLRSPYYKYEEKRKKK

[2] = system: NPC1 (I1061T mutant) homozygous patient fibroblasts; assay: Cellular calcium in NPC1 (I1061T mutant) patient fibroblasts; assay type: cell-based, human
[3] = target: T2, Synthetic TMEM97 (108-176) (Homo sapiens, UniProt Q5BJF2); assay: Surface plasmon resonance, immobilized synthetic TMEM97 (108-176); assay type: binding; conditions: SPR
T2 construct: Three peptides, TMEM97 (108-176), TMEM97 (108-143) and TMEM97 (144-176), were synthesized; made in house; host or cells: chemical solid-phase synthesis (Fmoc, Wang resin)
T2 sequence (Q5BJF2 108-176): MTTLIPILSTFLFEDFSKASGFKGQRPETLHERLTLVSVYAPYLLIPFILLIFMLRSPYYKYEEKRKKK
Protocol: (§1) Surface Plasmon Resonance (SPR). Recombinant full-length TMEM97 (also called MAC30, from HEK293 cells) and GST-TMEM97 (108-176, recombinant GST-C terminal from wheat germ) proteins were purchased from OriGene (Rockville, Md.) and Abnova (Taipei City, Taiwan), respectively. Three peptides, TMEM97 (108-176), TMEM97 (108-143) and TMEM97 (144-176), were synthesized. All proteins and peptides were initially prepared in HBS buffer containing 10 mM HEPES, pH 7.4, 150 mM NaCl, and 0.05% surfactant P20. The CM5 sensor surface was first activated by 1-ethyl-3-(3-dimethylaminopropyl) carbodiimide hydrochloride (EDC)/N-hydroxy succinimide (NHS) mixture using a Biacore T200 or Biacore 8K instrument (GE Healthcare). […] Flow channels 1 and 3 were used as references.
(§2) The three synthesized peptides were diluted to 50 μg/mL in 10 mM sodium acetate at pH 4.0 and immobilized to flow channels 2, 3 and 4, respectively, on another sensor chip. The unmodified surfaces on a flow channel 1 were used as a reference control. Histatin solutions with a series of increasing concentrations (0.78-25 μM at 2-fold dilution) were applied to all four channels at a 30 μL/minute flow rate at 25° C. The data were double-referenced with reference channel and zero concentration responses, and reference subtracted sensorgrams were fitted with 1 to 1 Langmuir kinetic model using a Biacore T200 evaluation software V3.0 or Insight evaluation software. The equilibrium dissociation constants ([…]) were determined from two rate constants (KD=kd/ka).
(§3) To determine more precisely which segment of TMEM97 is necessary for binding of Hst1, multiple synthetic fragments of TMEM97 were generated (Table 6) and binding to Hst1 was tested using SPR. […] Smaller fragments of the C-terminal of TMEM97 were then constructed to represent the (predicted) luminal (108-143) and cytoplasmic (144-176) exposed segments of the C-terminus of TMEM97 based on modeling experiments previously described. […] SPR results for Hst1 were confirmed using ITC as an orthogonal analytical method.
(§4) To determine the region(s) of Hst1 that mediate binding to TMEM97, SPR testing was performed with various Hst1 fragments and either recombinant TMEM97 (GST-tagged, wheat-germ derived, C-terminal fragment TMEM97 (108-176)) or synthesized TMEM97 (TMEM97 (108-176), TMEM97 (108-143) and TMEM97 (144-176)).

[4] = system: Human corneal epithelial cells; assay: Cell viability of BAK-treated human corneal epithelial cells; assay type: cell-based; conditions: benzalkonium chloride (BAK) treatment
Description: Apoptosis. […] BAK and hOsm are standard inducers of corneal epithelial and neuronal cell death and toxicity, phenomena which are associated with ocular surface pain and chronic pain syndromes.

NPC1 KD cells = assay: Filipin staining of cholesterol in NPC1 knockdown cells; assay type: cell-based; conditions: 20 μM or 50 μM
Description: Cholesterol. […] Filipin staining, the generally accepted tool for detection of cholesterol deposits in NPC cells (Vanier, et al. (2003) Clin. Genet. 64:269-81), was used to visualize cholesterol in control and NPC1 KD cells. This analysis indicated increased clustering and collection of filipin-stained cholesterol in NPC1 KD cells, consistent with the NPC1 phenotype.

[5] = cyclization of histatin-1; cited from earlier work
[6] = target: T3, Synthetic TMEM97 (108-143) (Homo sapiens, UniProt Q5BJF2); assay: Surface plasmon resonance, immobilized synthetic TMEM97 (108-143); assay type: binding; conditions: SPR
T3 construct: made in house; host or cells: chemical solid-phase synthesis (Fmoc, Wang resin)
T3 sequence (Q5BJF2 108-143 limits assumed): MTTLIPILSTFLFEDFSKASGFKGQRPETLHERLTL
Protocol: as §1, §2, §3, §4

## CC(C)C[C@H](NC(=O)[C@H](Cc1ccc(O)cc1)NC(=O)[C@H](CC(N)=O)NC(=O)[C@H](CO)NC(=O)CNC(=O)[C@H](Cc1ccc(O)cc1)NC(=O)[C@H](CC(=O)O)NC(=O)CNC(=O)[C@H](Cc1ccc(O)cc1)NC(=O)[C@H](Cc1ccccc1)NC(=O)[C@@H]1CCCN1C(=O)[C@H](Cc1ccccc1)NC(=O)[C@H](CCC(=O)O)NC(=O)[C@H](CCCNC(=N)N)NC(=O)[C@H](Cc1c[nH]cn1)NC(=O)[C@H](CO)NC(=O)[C@H](Cc1c[nH]cn1)NC(=O)[C@H](Cc1c[nH]cn1)NC(=O)[C@H](CCCCN)NC(=O)[C@H](CCC(=O)O)NC(=O)[C@H](Cc1c[nH]cn1)NC(=O)[C@H](Cc1ccccc1)NC(=O)[C@H](CCCCN)NC(=O)[C@H](CCCNC(=N)N)NC(=O)[C@H](CCCNC(=N)N)NC(=O)[C@H](Cc1ccc(O)cc1)NC(=O)CNC(=O)[C@H](Cc1c[nH]cn1)NC(=O)[C@H](Cc1c[nH]cn1)NC(=O)[C@H](CCCNC(=N)N)NC(=O)[C@H](CCCCN)NC(=O)[C@H](CCC(=O)O)NC(=O)[C@H](Cc1c[nH]cn1)NC(=O)[C@H](COP(=O)(O)O)NC(=O)[C@@H](N)CC(=O)O)C(=O)N[C@@H](Cc1ccc(O)cc1)C(=O)N[C@@H](CC(=O)O)C(=O)N[C@@H](CC(N)=O)C(=O)O [Hst1] (H-D[pS]HEKRHHGYRRKFHEKHHSHREFPFYGDYGSNYLYDN-OH; N-terminus and C-terminus assumed)
[1]; SPR
  % Rmax: 32%
[1]; SPR, 25° C., 1 to 1 Langmuir kinetic model
  Kd: 1.3 ± 0.3 µM
[1]; addition of either DTG or haloperidol
  effect of added DTG or haloperidol on Hst1 binding: did not affect
[2]
  cellular calcium levels: increased cellular calcium levels
[3]
  % Rmax: 38%
  Kd: 2.4 µM
[3]; listed as Hst1(1-38)
  % Rmax: (% Rmax = 23%)
[4]
  BAK-induced loss of cell viability: abrogated
NPC1 KD cells
  cholesterol accumulation (Filipin staining): reduced cholesterol accumulation
[5]
  potentiation of molar activity by cyclization: approximately 1000 fold
[6]
  KD / binding: unable to bind
[6]; listed as Hst1(1-38)
  KD / binding: No binding
